From patent publication US12673106B2, “Modulators of nuclear receptor subfamily 4 group A member 1 (NR4A1) and uses thereof” (University of Florida Research Foundation, Incorporated, priority 2020, dated 2026)

Experiments:
NR4A1 [1] = biological target: T1, NR4A1 (Homo sapiens, UniProt P22736); assay: E3 ligase-mediated NR4A1 degradation in transfected HEK293T cells (immunoblotting); type: cell-based; conditions: HEK293T transfected with NR4A1, with or without CRBN or VHL; 3 μM, 6 hrs
Procedure: FIG. 4A. Efficiency of NR4A1-Ps in protein degradation using 3 examples of NR4A1-Ps based on CRBN (NR-C91, 92, 93) and 4 based on VHL (NR-V03, 04, 07, 50), with NR-V04 showing the best efficacy in NR4A1 degradation. FIG. 4B. NR4A1 degradation is mediated by targeted E3 ligases. HEK293T cells were transfected with NR4A1, with or without overexpression of CRBN or VHL. 36 hrs after transfection, cells were treated with 3 μM of NR-C91 or NR-V04 for 6 hrs for immunoblotting.
(§1) Developing NR4A1-Ps. Due to the diverse function of NR4A1 in different cancer types, both agonistic and antagonistic ligands of NR4A1 are of interest in development (25). […] 4 cytosporone-B-based and 10 celastrol-based NR4A1-Ps using polyethylene glycol (PEG) linkers of various length have already been synthesized (FIG. 3 showing several examples).

NR4A1 [2] = biological target: T1, NR4A1; assay: Degradation of endogenous NR4A1 in T47D breast cancer cells; type: cell-based; parameters: degrade endogenous NR4A1 in T47D breast cancer cells; endogenous in cells; host or cells: T47D breast cancer cells; conditions: 1 μM
NR4A1 [3] = biological target: T2, NR4A1 (Mus musculus, UniProt P12813); assay: NR4A1 degradation in MC38 tumors of treated mice (tumor lysate immunoblotting); type: in vivo; conditions: MC38-tumor bearing mice, 1.8 mg/kg twice weekly for 3 weeks
T2 construct: from tissue; host or cells: MC38 tumors from treated tumor-bearing mice (tumor lysates)
Text: Tumor lysates were used for immunoblotting.
as §1

T47D cells = assay: MTS viability assay, T47D cells; type: cell-based; conditions: relative to celastrol or NR-V04-NT
Text: (§2) NR4A1-Ps selectively kill breast cancer cells. Since NR-V04 is very efficient in NR4A1 degradation, a negative control, NR-V04-NT, was synthesized.

MCF7-Tam cells = assay: MTS viability assay, MCF7-Tam cells; type: cell-based; conditions: relative to celastrol or NR-V04-NT
Text: as §2

MCF10A = assay: MTS viability assay, MCF10A normal breast epithelial cells; type: cell-based, human; conditions: relative to celastrol
Text: as §2

Py8119 cells = assay: Py8119 breast cancer model in C57/BL6 mice; type: in vivo, mouse
Procedure: FIG. 7A-FIG. 7D. Py8119 cells were injected into #4 mammary fatpad of 8-week female C57/BL6 mice, following with vehicle or NR-V04 treatment i.p. at 8 mg/kg weekly, starting at day 15 after tumor cell injection. Body weight (FIG. 7A), tumor growth (data not shown), and immune cell profiling by flow cytometry from spleen, tumor, and blood were shown (FIG. 7B-7D). CD45+CD3+CD8+ T cells (FIG. 7B), CD45+CD3+CD4+T (FIG. 7C), and ratios of CD4+Foxp3+Tregs to total T cells (T), to total CD4 T cells (CD4), to total CD4conv (non Treg CD4 T cells), or to CD8 T cells (FIG. 7D) were shown. * P<0.05; ** P<0.01.
(§3) FIG. 13A-FIG. 13C. Influence of NR-V04 treatment on TI-Tregs from (FIG. 13A) B16F10 melanoma, 1.8 mg/kg twice weekly for 3 weeks; (FIG. 13B) RENCA renal cancer model, 20 mg/kg once a week for 3 weeks; (FIG. 13C-13D) Py8119 breast cancer model, 8 mg/kg once a week for 3 weeks; with FIG. 13C showing the ratios between Treg/Tconv and FIG. 13D showing Treg/CD8+ T cell ratios.
Syngeneic models for antitumor activities. Syngeneic tumor models include breast cancer models: 1) E0771 as luminal breast cancer (C57BL/6 background) (36-38), 2) Py8119 (C57BL/6) (37, 39, 40) and 3) 4T1 (Balb/C) (41, 42) as triple negative breast cancer, and 4) MT2 as HER2-positive breast cancer (FVB/N) (43, 44), all of which develop metastasis upon orthotopic tumor injections; 5) MC-38 colon cancer model; 6) Renca renal carcinoma model; 7) B16 melanoma models. MC-38 is known to be responsive to ICIs and Renca is known to respond of Treg suppression in their tumor growth. B16 is only partially responsive to ICI treatment when anti-CTLA-4 and anti-PD-1 are combined. Careful titration of the minimal cell numbers provides consistent tumor growth and/or metastasis. For testing the efficacy of NR-V04 or other leads, tumor-bearing mice will be treated with either non-targeting NR-V04-NT or NR-V04, or other leads, starting 14 days after tumor cell injection when 3-5 mm in diameter tumor growth is typically seen in all models. The dose and frequency will be used based on the data from SA1.2. Based on work on BCL-XL PROTAC (22), weekly injection of the leads should be sufficient to maintain effective doses in various tissues.

RENCA cells = assay: RENCA renal cancer model in Balb/C mice; type: in vivo, mouse
Procedure: RENCA cells (10,000 per injection) were injected into s.c. of 8-week Balb/C mice, following with vehicle or NR-V04 treatment i.p. at 8 mg/kg weekly, starting at day 15 after tumor cell injection. Tumor volume was recorded.
as §3
Some of the above tumor models will be included, initially using immune responsive tumors including RENCA and MC38 model. […] Tumor volumes will be determined twice weekly by a caliper and calculated as length×width^2×0.5. Animal will be terminated once the largest tumors reach 2 cm in diameter per IACUC protocol (size is justified to determine lung metastasis). • The parameters include: • Primary tumors—Tumors will be cut into pieces and used for: a) immunohistochemical (IHC) staining (embedding in OCT compound and freezing). […]

B16F10 melanoma [4] = assay: B16F10 melanoma model in C57BL/6J mice; type: in vivo, mouse
Procedure: (§4) FIG. 10A-10C. […] Tumor growth were monitored via palpation. N=7 mice/group. FIG. 10A and FIG. 10B are the same experiment, but FIG. 10B includes only control vehicle and NR-V04 treated groups in FIG. 10B.
as §3

B16F10 melanoma [5] = assay: B16F10 melanoma model in NSG mice; type: in vivo, mouse; conditions: 1.8 mg/kg twice weekly for 3 weeks
Text: as §4

[6] = Body weight and T cell development in normal mice; type: in vivo, mouse; conditions: up to 3 weeks
Text: Thymus (FIG. 12A) and spleen (FIG. 12B) were collected for T cell quantitation by flow cytometry.

human T cells from PBMC = assay: T cells from human PBMC of cancer patients, CD3/CD28 co-stimulated, flow cytometry; type: cell-based; conditions: 500 nM or 1 uM, two days
Procedure: T cells were purified from human PBMC from cancer patients and co-stimulated with anti-CD3/CD28 dynabeads for 3 days, following with DMSO, 500 nM or 1 uM of NR-V04 treatment for two days. FIG. 14A-14B, different sub-population of T cell numbers were quantitated via flow cytometry (FIG. 14A), with Treg panel separated (FIG. 14B).
In agreement with the in vivo models, we also activated all human T cells from PBMC of cancer patients, following with the treatment of various concentrations of NR-V04.

CD8+ T cells = assay: CD8 T cell activation in B16F10 tumor bearing mice, flow cytometry; type: in vivo, mouse; conditions: 1.8 mg/kg, one week (two doses)
Procedure: B16F10 tumor bearing mice were treated with control vehicle or 1.8 mg/kg of NR-V04 for one week (two doses). CD8 T cells were analyzed for activation from tumors, spleen and blood. FIG. 15A. CD44+CD62L+(central memory, CM) and FIG. 15B. CD44+CD62L− (effector memory, EM) of CD8+ T cells were quantitated using flow cytometry.
We also determined the impact of NR-V04 on exhaustion and activation of CD8^+ T cells.

OT-1 CD8 T cells = assay: OVA peptide-induced exhaustion of OT-1 CD8 T cells, flow cytometry; type: cell-based, mouse; conditions: 1 μM
Procedure: Splenic CD8+ T cells were purified from OT-1 transgenic mice, treated with 10 ng/ml of OVA peptides for 5 days, following with NR-V04 treatment at 250 nM, 500 nM or 1 μM. CD39+, granzyme B+(P<0.0001), Lag3+ or PD-1+CD8 T cells (P<0.05) were quantitated using flow cytometry.
To induce antigen specific exhaustion of CD8^+ T cells, we purified CD8^+ T cells from OT-1 mice that expresses T cell receptor targeting OVA antigen. We treated these OT-1 CD8 T cells with OVA peptide for 5 days to induce their exhaustion, following with NR-V04 treatment with various concentrations.

[7] = Pharmacokinetics in mouse, plasma by LC/MS/MS; type: in vivo
Procedure: Plasma concentrations of NR-V04 were determined by LC/MS/MS (Instrument: AB Sciex 6500 (#15)) using service from BioDuro Inc, at different time points after mice receiving iv injection of 2 mg/kg or ip injection of 20 mg/kg. PK values for iv (2 mg/kg, FIG. 17A) or ip (20 mg/kg, FIG. 17B) are shown and summarized (FIG. 17C).
PK was determined for NR-V04 for iv. injection of 2 mg/kg or ip injection of 20 mg/kg (FIG. 17).

[8] = Toxicity and body weight in tumor-bearing mice (FIG. 11); type: in vivo; conditions: 0.75 mg/kg celastrol twice weekly for 3 weeks
Procedure: Body weight was recorded weekly.

NR4A1 [9] = biological target: T1, NR4A1; parameters: degrade endogenous NR4A1 in T47D breast cancer cells; endogenous in cells; host or cells: T47D breast cancer cells; conditions: NR4A1 ligand used as warhead; cited from earlier work

T1 sequence (P22736 whole entry, species assumed): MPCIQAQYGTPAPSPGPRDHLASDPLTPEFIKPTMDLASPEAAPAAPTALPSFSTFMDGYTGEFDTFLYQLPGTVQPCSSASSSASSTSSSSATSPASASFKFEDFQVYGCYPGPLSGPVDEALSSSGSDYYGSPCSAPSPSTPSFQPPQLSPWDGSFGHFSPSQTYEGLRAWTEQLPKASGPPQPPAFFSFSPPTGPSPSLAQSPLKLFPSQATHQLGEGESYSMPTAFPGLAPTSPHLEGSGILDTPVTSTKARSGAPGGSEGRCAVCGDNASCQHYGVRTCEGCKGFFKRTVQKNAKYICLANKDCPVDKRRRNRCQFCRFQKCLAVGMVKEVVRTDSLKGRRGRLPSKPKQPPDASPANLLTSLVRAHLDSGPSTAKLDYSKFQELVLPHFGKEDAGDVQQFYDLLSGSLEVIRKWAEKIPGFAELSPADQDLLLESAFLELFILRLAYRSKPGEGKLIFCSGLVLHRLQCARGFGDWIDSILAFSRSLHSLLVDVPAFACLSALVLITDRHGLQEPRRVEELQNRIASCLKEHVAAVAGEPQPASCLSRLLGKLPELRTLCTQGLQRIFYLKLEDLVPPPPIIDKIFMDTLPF
T2 sequence (P12813 whole entry): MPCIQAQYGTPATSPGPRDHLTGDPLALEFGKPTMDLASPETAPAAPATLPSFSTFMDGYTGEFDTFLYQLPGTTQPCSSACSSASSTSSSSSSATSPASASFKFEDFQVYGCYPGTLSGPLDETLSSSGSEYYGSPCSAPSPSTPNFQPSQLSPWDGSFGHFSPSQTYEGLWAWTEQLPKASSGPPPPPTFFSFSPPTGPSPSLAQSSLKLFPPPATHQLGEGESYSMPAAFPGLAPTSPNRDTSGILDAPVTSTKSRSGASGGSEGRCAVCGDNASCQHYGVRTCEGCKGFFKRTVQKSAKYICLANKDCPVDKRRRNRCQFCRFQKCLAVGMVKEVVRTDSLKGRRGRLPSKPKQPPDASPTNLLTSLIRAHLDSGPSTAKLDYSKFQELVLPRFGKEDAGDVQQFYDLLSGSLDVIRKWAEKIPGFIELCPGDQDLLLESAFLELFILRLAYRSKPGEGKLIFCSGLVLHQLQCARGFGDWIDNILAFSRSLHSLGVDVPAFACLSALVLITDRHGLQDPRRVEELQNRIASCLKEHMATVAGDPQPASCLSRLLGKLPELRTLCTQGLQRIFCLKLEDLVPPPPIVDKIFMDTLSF

SMILES: CC1=C(O)C(=O)C=C2C1=CC=C1[C@@]2(C)CC[C@@]2(C)[C@@H]3C[C@](C)(C(=O)NCCOCCNc4cccc5c4C(=O)N(C4CCC(=O)NC4=O)C5=O)CC[C@]3(C)CC[C@]12C (stereo partly drawn) [NR-C91]
- NR4A1 degradation with overexpression of the corresponding E3 ligase (NR4A1 [1]): overexpression of their corresponding E3 ligases facilitated NR4A1-P-mediated degradation of NR4A1
- NR4A1 degradation (NR4A1 [2]): led to the degradation of NR4A1, but not as efficiently as NR-V04

SMILES: CC1=C(O)C(=O)C=C2C1=CC=C1[C@@]2(C)CC[C@@]2(C)[C@@H]3C[C@](C)(C(=O)NCCOCCOCCOCCOCC(=O)N[C@H](C(=O)N4C[C@H](O)C[C@H]4C(=O)N[C@@H](C)c4ccc(-c5scnc5C)cc4)C(C)(C)C)CC[C@]3(C)CC[C@]12C [NR-V04]
- NR4A1 degradation with overexpression of the corresponding E3 ligase (NR4A1 [1]): overexpression of their corresponding E3 ligases facilitated NR4A1-P-mediated degradation of NR4A1
- degradation of NR4A1 within tumors (NR4A1 [3]): efficient degradation of target protein NR4A1
- cell killing (% viability) (T47D cells): more robust killing relative to celastrol or NR-V04-NT
- cell killing (% viability) (MCF7-Tam cells): more robust killing relative to celastrol or NR-V04-NT
- toxicity to normal cells (% viability) (MCF10A): less toxic
- overall CD4+ and CD8+ T cells (Py8119 cells; Py8119, 8 mg/kg i.p. weekly): without influencing overall CD4+ and CD8+ T cells
- tumor-infiltrating Tregs versus effector T cell ratio (Py8119 cells; Py8119, 8 mg/kg i.p. weekly): On-target decrease
- tumor growth (Py8119 cells; Py8119, 8 mg/kg i.p. weekly from day 15): Tumor growth difference was not observed
- body weight (Py8119 cells; Py8119, 8 mg/kg i.p. weekly, day 25 or 30): no difference in body weight
- tumor volume (RENCA cells; 8 mg/kg i.p. weekly from day 15): significant reduction
- TI-Tregs (RENCA cells; 20 mg/kg once a week for 3 weeks): decreased TI-Tregs
- TI-Tregs (B16F10 melanoma [4]; B16F10, 1.8 mg/kg twice weekly for 3 weeks): decreased TI-Tregs
- tumor growth (B16F10 melanoma [4]; B16F10 in C57BL/6J male mice, 1.8 mg/kg NR-V04 or 0.75 mg/kg celastrol twice weekly for 3 weeks): significantly reduces tumor growth
- tumor suppressing effect (B16F10 melanoma [5]): this effect is diminished
- body weight [6]: did not influence the body weight
- development of T cells in thymus and spleen [6]: did not change the normal development of T cells
- T cell populations other than Tregs (human T cells from PBMC): no impact on various T cell populations
- Tregs (human T cells from PBMC): selectively elimination of Tregs
- central memory CD8+ T cells (CD44+CD62L+) (CD8+ T cells): no significant change
- effector memory population of CD8+ T cells (CD44+CD62L−) (CD8+ T cells): significant increase
- granzyme B+ active CD8 T cells (OT-1 CD8 T cells): increase
- percent of Lag3+ exhausted CD8 T cells (OT-1 CD8 T cells): significantly reduced
- percent of PD-1+ exhausted CD8 T cells (OT-1 CD8 T cells): significantly reduced
- average half-life ([7]; ip injection 20 mg/kg): 8.58 h
- average half-life ([7]; iv injection 2 mg/kg): 5.36 h
- NR4A1 degradation (NR4A1 [2]): best efficiency in inducing NR4A1 degradation

SMILES: CC1=C(O)C(=O)C=C2C1=CC=C1[C@@]2(C)CC[C@@]2(C)[C@@H]3C[C@](C)(C(=O)O)CC[C@]3(C)CC[C@]12C [celastrol]
- body weight [8]: significant body weight change

SMILES: CCCCCCCC(=O)c1c(O)cc(O)cc1CC(=O)OCC [cytosporone-B]
- Kd (NR4A1 [9]): 1680 nM
